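Exposure lasted 48 hours, with cells grown in 96-well plates and compounds tested at five concentrations. The concentration for full growth arrest is given as TGI.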 Where a SMILES comes first, the peptide text is derived from it. [ ]: non-standard residue; d: D form. The star is where a group is joined. ξ: configuration not given here. ξF = NC(Cc1ccccc1)C(=O)O; Cbz = O=C(OCc1ccccc1)*; Aib = CC(C)(N)C(=O)O; NHNH2 = NN*
Tests used:
Experiment in all cases: inhibition of tumour cell growth, NCI panel, 48 h
HS 578T breast = tested on: HS 578T breast
SN12C renal = tested on: SN12C renal
RPMI-8226 leukemia = tested on: RPMI-8226 leukemia
786-0 renal = tested on: 786-0 renal
SF-295 CNS = tested on: SF-295 CNS
OVCAR-3 ovarian = tested on: OVCAR-3 ovarian
OVCAR-5 ovarian = tested on: OVCAR-5 ovarian
NCI-H226 lung = tested on: NCI-H226 lung
NCI-H522 lung = tested on: NCI-H522 lung
NCI-H460 lung = tested on: NCI-H460 lung
SK-OV-3 ovarian = tested on: SK-OV-3 ovarian
T-47D breast = tested on: T-47D breast
MDA-MB-231 breast = tested on: MDA-MB-231 breast
LOX IMVI melanoma = tested on: LOX IMVI melanoma
KM12 colon = tested on: KM12 colon
DU-145 prostate = tested on: DU-145 prostate
A549 NSCLC = tested on: A549 NSCLC
UACC-62 melanoma = tested on: UACC-62 melanoma
OVCAR-8 ovarian = tested on: OVCAR-8 ovarian
HOP-62 NSCLC = tested on: HOP-62 NSCLC

Structure (SMILES)	TGI (HS 578T breast)	TGI (SN12C renal)	TGI (RPMI-8226 leukemia)	TGI (786-0 renal)	TGI (SF-295 CNS)	TGI (OVCAR-3 ovarian)	TGI (OVCAR-5 ovarian)	TGI (NCI-H226 lung)	TGI (NCI-H522 lung)	TGI (NCI-H460 lung)	TGI (SK-OV-3 ovarian)	TGI (T-47D breast)	TGI (MDA-MB-231 breast)	TGI (LOX IMVI melanoma)	TGI (KM12 colon)	TGI (DU-145 prostate)	TGI (A549 NSCLC)	TGI (UACC-62 melanoma)	TGI (OVCAR-8 ovarian)	TGI (HOP-62 NSCLC)
Cc1cc(S(=O)(=O)Nc2n[nH]c(Nc3ccc(Cl)cc3)n2)c(S)cc1Cl	> 100 µM	> 100 µM	> 100 µM	> 100 µM	> 100 µM	> 100 µM	> 100 µM	> 100 µM	> 100 µM	> 100 µM	> 100 µM	> 100 µM	> 100 µM	> 100 µM	> 100 µM	> 100 µM	> 100 µM	> 100 µM	> 100 µM	> 100 µM
CN(C)CCCN1C(=S)N(CCCN(C)C)c2c3ccccc3nc3c([N+](=O)[O-])ccc1c23	41 µM	18.1 µM	50.6 µM	18.2 µM	23.7 µM	24.4 µM	39.5 µM	24.1 µM	10.5 µM	18 µM	50.8 µM	31.6 µM	24 µM	17.9 µM	16.1 µM	19.8 µM	> 42.2 µM	24.3 µM	22.5 µM	47 µM
COC(=O)C1CCC(=O)N1CN(C(C)=O)c1ccccc1Cl (stereo not given)	> 100 µM	> 100 µM	> 100 µM	> 100 µM	> 100 µM	> 100 µM	> 100 µM	> 100 µM	> 100 µM	> 100 µM	> 100 µM	> 100 µM	> 100 µM	> 100 µM	> 100 µM	> 100 µM	> 100 µM	> 100 µM	> 100 µM	> 100 µM
CC(C)C1C(=O)N(c2c(F)c(F)c(F)c(F)c2F)C(=S)N1CCS(=O)c1ccccc1 (stereo not given)	62.6 µM	31 µM	53.8 µM	32.1 µM	33.1 µM	30.5 µM	32.5 µM	38.5 µM	12.6 µM	40.1 µM	34.9 µM	32.5 µM	32 µM	28.2 µM	32.6 µM	47.6 µM	40.1 µM	34.9 µM	32.6 µM	40.8 µM
O=C1CSC(/C=C/c2ccccc2)N1c1nc2cc3sc(N4C(=O)CSC4/C=C/c4ccccc4)nc3cc2s1 (stereo not given)	> 100 µM	> 100 µM	> 100 µM	> 100 µM	> 100 µM	> 100 µM	> 100 µM	> 95.5 µM	> 100 µM	> 100 µM	> 100 µM	> 100 µM	> 100 µM	> 100 µM	> 100 µM	> 100 µM	> 100 µM	> 100 µM	> 100 µM	> 100 µM
O=c1ccn(CC2(CO)CCC2)c(=O)[nH]1	> 100 µM	> 100 µM	> 100 µM	> 100 µM	> 100 µM	> 100 µM	> 100 µM	> 100 µM	> 100 µM	> 100 µM	> 100 µM	> 100 µM	> 100 µM	> 100 µM	> 100 µM	> 100 µM	> 100 µM	> 100 µM	> 100 µM	> 100 µM
CC(NC(=O)/C(=C/c1ccccc1)NC(=O)c1ccccc1)C(=O)O (stereo not given)	> 100 µM	> 100 µM	> 100 µM	> 100 µM	> 100 µM	> 100 µM	> 100 µM	99.5 µM	> 100 µM	> 100 µM	> 100 µM	> 100 µM	> 100 µM	> 100 µM	> 100 µM	> 100 µM	> 100 µM	> 100 µM	> 100 µM	> 100 µM
CNNC1=NS(=O)(=O)c2cc(C#N)c(Cl)cc2S1	> 10 µM	> 10 µM	> 10 µM	> 10 µM	> 10 µM	> 10 µM	> 10 µM	> 10 µM	> 10 µM	> 10 µM	> 10 µM	> 10 µM	> 10 µM	> 10 µM	> 10 µM	> 10 µM	> 10 µM	> 10 µM	> 10 µM	> 10 µM
CN(C)CCCc1cccc2[nH]c3c(c12)CN(C)CC3	> 100 µM	> 100 µM	> 100 µM	> 100 µM	> 100 µM	> 100 µM	> 100 µM	> 100 µM	> 100 µM	> 100 µM	> 100 µM	> 100 µM	> 100 µM	> 100 µM	> 100 µM	> 100 µM	> 100 µM	> 100 µM	> 100 µM	> 100 µM
CC(C)OC(=O)c1ccc(CCC2=CC(=O)C=CC2=O)cc1	50 µM	26.5 µM	24.2 µM	15.6 µM	90.9 µM	17 µM	29.4 µM	33.5 µM	4.02 µM	54.1 µM	> 88.6 µM	4.45 µM	23.2 µM	14.2 µM	27 µM	37 µM	> 79.7 µM	28.8 µM	18.1 µM	47.4 µM
Cc1cc(C)n(CC(Cn2nc(C)cc2C)=C(/C(Cl)=C(/Cl)Nc2ccc([N+](=O)[O-])cc2)[N+](=O)[O-])n1	33.2 µM	17.6 µM	5.12 µM	18.9 µM	20.9 µM	15.2 µM	33.2 µM	49.4 µM	5.01 µM	10.9 µM	14.2 µM	17.3 µM	25.5 µM	6.06 µM	6.55 µM	14 µM	13.3 µM	15.4 µM	14.6 µM	22.2 µM
O=P12N(CCN1c1ccccc1)CCN2c1ccccc1	> 100 µM	> 100 µM	> 100 µM	> 100 µM	> 100 µM	> 100 µM	> 100 µM	> 100 µM	> 100 µM	> 100 µM	> 100 µM	> 100 µM	> 100 µM	> 100 µM	> 100 µM	> 100 µM	> 100 µM	> 100 µM	> 100 µM	> 100 µM
CC(ON(C(c1ccccc1)C(C)C)C(C)(C)C)c1ccccc1 (stereo not given)	64.1 µM	32.5 µM	73.7 µM	30.7 µM	28.5 µM	30 µM	29.8 µM	36.6 µM	44.4 µM	39.1 µM	> 100 µM	81 µM	39.3 µM	35.3 µM	41.8 µM	32.8 µM	84.9 µM	32.2 µM	51.7 µM	38.9 µM
C#C[C@]1(O)CC[C@H]2[C@@H]3CCC4=C/C(=N/OCCN(C)C)CC[C@]4(C)[C@H]3CC[C@@]21C	> 100 µM	> 100 µM	> 100 µM	> 100 µM	32.4 µM	65.2 µM	> 100 µM	85.8 µM	62.6 µM	> 100 µM	> 100 µM	> 100 µM	> 100 µM	> 100 µM	> 100 µM	> 100 µM	> 100 µM	> 100 µM	> 100 µM	> 100 µM
CC(C)(NC(=O)OCc1ccccc1)C(=O)NC(Cc1ccccc1)C(=O)NN (stereo not given) (Cbz-[Aib]-[ξF]-NHNH2)	> 100 µM	> 100 µM	> 100 µM	> 100 µM	> 100 µM	> 100 µM	> 100 µM	> 100 µM	> 100 µM	> 100 µM	> 100 µM	> 100 µM	> 100 µM	> 100 µM	> 100 µM	> 100 µM	> 100 µM	> 100 µM	> 100 µM	> 100 µM
O=C(NC1(c2cc3ccccc3s2)CCCCC1)C1CCC1	83.7 µM	> 100 µM	> 100 µM	> 100 µM	> 100 µM	> 100 µM	> 100 µM	> 100 µM	> 100 µM	> 100 µM	> 100 µM	> 100 µM	> 100 µM	> 100 µM	> 100 µM	> 100 µM	> 100 µM	> 100 µM	> 100 µM	> 100 µM
COc1cc(OC)c2c(c1)OC(c1ccccc1)CC2=O (stereo not given)	> 10 µM	> 10 µM	> 10 µM	> 10 µM	> 10 µM	> 10 µM	> 10 µM	> 10 µM	> 10 µM	> 10 µM	> 10 µM	> 10 µM	> 10 µM	> 10 µM	> 10 µM	> 10 µM	> 10 µM	> 10 µM	> 10 µM	> 10 µM
CCOc1cc(C2SCC(=O)N2c2ccc(Oc3ccc(Cl)cc3)c(Cl)c2)ccc1O (stereo not given)	37.1 µM	59.3 µM	80.1 µM	45.8 µM	34.1 µM	30.6 µM	53.3 µM	31.1 µM	28.1 µM	39.1 µM	37.3 µM	40.4 µM	36 µM	38.7 µM	31.8 µM	31.3 µM	39.7 µM	30.3 µM	38.2 µM	40.8 µM
N=C1OC(CN2CCN(c3ccccc3)CC2)CN1C(=S)Nc1ccccc1 (stereo not given)	> 100 µM	> 100 µM	> 100 µM	> 100 µM	> 100 µM	> 100 µM	> 100 µM	> 100 µM	> 100 µM	> 100 µM	> 100 µM	> 100 µM	> 100 µM	72.7 µM	> 100 µM	> 100 µM	> 100 µM	> 100 µM	> 100 µM	> 100 µM
C=CCN(c1cc(OCc2ccccc2)c2[nH]cc(C)c2c1)S(C)(=O)=O	> 100 µM	> 100 µM	> 100 µM	> 100 µM	> 100 µM	> 100 µM	> 100 µM	> 100 µM	> 100 µM	> 100 µM	> 100 µM	60.6 µM	> 100 µM	> 100 µM	> 100 µM	> 100 µM	> 100 µM	> 100 µM	> 100 µM	> 100 µM
COC(=O)/C=C1\C(=O)N(C(C)=O)c2ccc(Br)cc21	36.8 µM	18.3 µM	6.95 µM	18 µM	31.6 µM	15.7 µM	32.4 µM	29.4 µM	13.3 µM	30.4 µM	29.1 µM	15.1 µM	28.2 µM	20.3 µM	28.6 µM	25.5 µM	36 µM	25.3 µM	24 µM	25.9 µM
NC1=CN(CCCO)C2=N/C(=C\c3ccccc3)C(=O)N12	> 100 µM	> 100 µM	> 100 µM	> 100 µM	> 100 µM	> 100 µM	> 100 µM	> 100 µM	> 100 µM	> 100 µM	> 100 µM	> 100 µM	> 100 µM	> 100 µM	> 100 µM	> 100 µM	> 100 µM	> 100 µM	> 100 µM	> 100 µM
C=C1C(=O)O[C@H]2C/C(C)=C/CC[C@@]3(C)O[C@](C)(CC[C@@H]3I)[C@@H](I)C[C@@H]12	26 µM	16.4 µM	5.12 µM	10.9 µM	15 µM	8.63 µM	26.2 µM	2.13 µM	8.64 µM	13.2 µM	14.4 µM	15 µM	14.7 µM	6.34 µM	18.5 µM	11.8 µM	18.2 µM	12 µM	10.1 µM	15.6 µM

Source: PubChem BioAssay (NCI)
